In patent US11932594B1, “8-((2-hydroxy-5-methylphenyl)diazenyl)naphthalene-1,3-disulfonic acid as an antioxidant compound” (KING FAISAL UNIVERSITY, priority 2023, dated 2024):

Assay: DPPH (2,2-diphenyl-1-picrylhydrazyl) in vitro antioxidant test
Assay type: biochemical
Details: 517 nm; for Inhibition (radical scavenging inhibition): 0.2 mL DPPH (0.75 mM) in ethanol, 30 min incubation in the dark
Protocol: The antioxidant properties of the 8-((2-hydroxy-5-methylphenyl)diazenyl)naphthalene-1,3-disulfonic acid were studied by adding 0.2 mL DPPH (0.75 mM)) to compound 8-((2-hydroxy-5-methylphenyl)diazenyl)naphthalene-1,3-disulfonic acid (III) (304) in ethanol. After 30 min of incubation in the dark, the absorbance was read against a blank at 517 nm. Ascorbic acid (vitamin C) was used as standard antioxidants (positive control). A blank sample was prepared by 0.2 ml of DPPH in 3 ml ethanol. A negative control sample was run using ethanol instead of the sample. The radical scavenging inhibition was calculated using the following equation: […]

| SMILES | Inhibition (radical scavenging inhibition) | antioxidant potential compared to vitamin C (DPPH in vitro test, vitamin C as positive control) |
| --- | --- | --- |
| Cc1ccc(O)c(/N=N/c2cccc3cc(S(=O)(=O)O)cc(S(=O)(=O)O)c23)c1 [Product III, 8-((2-hydroxy-5-methylphenyl)diazenyl)naphthalene-1,3-disulfonic acid] | 54% | high potential as an antioxidant compared to vitamin C |
| O=C1O[C@H]([C@@H](O)CO)C(O)=C1O [vit c, Ascorbic acid, reference compound] | 74% | – |
